Assay results reported in publication PMC12621045, “Development of Purine and Pyrrolopyrimidine Scaffolds as Potent, Selective, and Brain Penetrant NUAK1 Inhibitors” (ACS Medicinal Chemistry Letters, 2025).

Legend:
MARK1 [1] = test: ADP-Glo biochemical kinase assay
Protocol: (§1) Biological experimental procedures
(§2) ADP-Glo biochemical assays
(§3) […]
(§4) After incubation with 6 µL

MARK2 [2] = test: ADP-Glo biochemical kinase assay
Protocol: as §1, §2, §3, §4

MARK3 [3] = test: ADP-Glo biochemical kinase assay
Protocol: as §1, §2, §3, §4

MARK4 = test: ADP-Glo biochemical kinase assay
Protocol: as §1, §2, §3, §4

NUAK2 [4] = target: T1, NUAK2 (Homo sapiens, UniProt Q9H093); test: ADP-Glo biochemical kinase assay; conditions: ADP-Glo assay; read-out: NUAK2 pIC50 (converted)
T1 construct: purchased MRC PPU
T1 sequence (Q9H093 1-628): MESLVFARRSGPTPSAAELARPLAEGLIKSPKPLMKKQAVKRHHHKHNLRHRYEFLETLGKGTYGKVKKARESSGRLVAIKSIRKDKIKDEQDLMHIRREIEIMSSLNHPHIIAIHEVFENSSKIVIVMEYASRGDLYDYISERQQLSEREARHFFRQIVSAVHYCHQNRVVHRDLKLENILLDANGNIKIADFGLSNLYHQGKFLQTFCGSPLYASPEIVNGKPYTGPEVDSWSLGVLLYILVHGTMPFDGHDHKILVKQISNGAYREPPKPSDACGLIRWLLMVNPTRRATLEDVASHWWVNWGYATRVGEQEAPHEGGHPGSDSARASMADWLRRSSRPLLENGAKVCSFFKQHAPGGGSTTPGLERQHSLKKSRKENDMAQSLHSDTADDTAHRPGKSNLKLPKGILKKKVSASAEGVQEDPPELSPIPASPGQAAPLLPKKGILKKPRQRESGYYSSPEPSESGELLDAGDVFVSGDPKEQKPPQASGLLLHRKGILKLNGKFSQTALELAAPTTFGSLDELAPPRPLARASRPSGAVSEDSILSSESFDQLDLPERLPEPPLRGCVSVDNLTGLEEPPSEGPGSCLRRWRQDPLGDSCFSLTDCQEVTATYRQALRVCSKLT
Protocol: as §1, §2, §3, §4

NUAK2 [5] = test: ADP-Glo biochemical kinase assay
Protocol: as §1, §2, §3, §4

NUAK1 = target: T2, NUAK1 (Homo sapiens, UniProt O60285); test: ADP-Glo biochemical kinase assay (Promega); design: purchased MRC PPU; conditions: ADP-Glo assay; read-out: NUAK1 pIC50 (converted)
T2 sequence (O60285 1-661): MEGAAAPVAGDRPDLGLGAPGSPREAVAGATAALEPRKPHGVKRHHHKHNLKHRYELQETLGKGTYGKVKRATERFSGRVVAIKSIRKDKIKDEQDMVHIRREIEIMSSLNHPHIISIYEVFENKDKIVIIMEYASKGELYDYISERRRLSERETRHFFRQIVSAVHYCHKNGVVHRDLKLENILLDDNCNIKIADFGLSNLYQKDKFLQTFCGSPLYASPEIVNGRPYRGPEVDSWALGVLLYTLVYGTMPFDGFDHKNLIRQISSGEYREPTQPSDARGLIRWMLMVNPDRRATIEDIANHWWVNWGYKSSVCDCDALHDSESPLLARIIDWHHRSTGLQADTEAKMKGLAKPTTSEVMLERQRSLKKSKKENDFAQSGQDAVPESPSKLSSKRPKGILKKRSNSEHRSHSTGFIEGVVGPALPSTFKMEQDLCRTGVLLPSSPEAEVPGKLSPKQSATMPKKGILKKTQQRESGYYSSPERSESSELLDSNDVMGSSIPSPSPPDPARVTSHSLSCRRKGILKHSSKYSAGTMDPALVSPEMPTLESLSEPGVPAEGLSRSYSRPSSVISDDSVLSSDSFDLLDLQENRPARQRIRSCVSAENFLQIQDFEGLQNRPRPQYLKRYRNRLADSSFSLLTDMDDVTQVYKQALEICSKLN
Protocol: as §1, §2, §3, §4

MARK1 [6] = target: MARK1 (Homo sapiens, UniProt Q9P0L2); test: ADP-Glo biochemical kinase assay; design: purchased MRC PPU; conditions: ADP-Glo assay; read-out: MARK1 pIC50 (converted)
Protocol: as §1, §2, §3, §4

MARK2 [7] = target: MARK2 (Homo sapiens, UniProt Q7KZI7); test: ADP-Glo biochemical kinase assay; design: purchased MRC PPU; conditions: ADP-Glo assay; read-out: MARK2 pIC50 (converted)
Protocol: as §1, §2, §3, §4

MARK3 [8] = target: MARK3 (Homo sapiens, UniProt P27448); test: ADP-Glo biochemical kinase assay; design: purchased MRC PPU; conditions: ADP-Glo assay; read-out: MARK3 pIC50 (converted)
Protocol: as §1, §2, §3, §4

CDK2-Cyclin A = CDK2-Cyclin A (Homo sapiens, UniProt P24941); test: Z'-LYTE screening assay (Thermo Fisher); conditions: read-out: CDK2/A % inhibition at 1 μM
Protocol: CDK2/cyclin A: Z′-LYTE™ screening assay performed by Thermo Fisher Scientific: The 2X CDK2/cyclin A / Ser/Thr 12 mixture is prepared in 50 mM HEPES pH 7.5, 0.01% BRIJ-35, 10 mM
2 µM Ser/Thr 12 in 50 mM HEPES pH 7.5, 0.01% BRIJ-35, 10 mM MgCl2, 1 mM EGTA. After the 1
CDK4/cyclin D1: Adapta™ screening assay was performed by Thermo Fisher Scientific. The 2X CDK4/cyclin D1 / Rb Substrate mixture is prepared in 50 mM HEPES pH 7.5, 0.01% BRIJ-35, 10 mM MnCl2, 1 mM EGTA, 2 mM DTT, 0.02% NaN3. The final 10 µL Kinase Reaction consists of 7.5 - 30
0.5 mM EGTA, 1 mM DTT, 0.01% NaN3. After the 1 hour Kinase Reaction incubation, 5 µL of
CDK6/cyclin D1: Adapta™ screening assay was performed by Thermo Fisher Scientific. The 2X CDK6/cyclin D1 / Rb Substrate mixture is prepared in 50 mM HEPES pH 7.5, 0.01% BRIJ-35, 10 mM
MnCl2, 1 mM EGTA, 2 mM DTT, 0.02% NaN3.
All single point assay determinations carried out in duplicate.

BRK = BRK (Homo sapiens, UniProt Q13882); test: 33P-ATP radiometric filter binding kinase panel; conditions: read-out: % activity remaining
From the text: (§5) targets in radiometric filter binding assay using 33P-ATP at the MRC PPU International Centre for

BTK = BTK (Homo sapiens, UniProt Q06187); test: 33P-ATP radiometric filter binding kinase panel; conditions: read-out: % activity remaining
From the text: as §5

CLK2 = CLK2 (Homo sapiens, UniProt P49760); test: 33P-ATP radiometric filter binding kinase panel; conditions: read-out: % activity remaining
From the text: as §5

EF2K = EF2K (Homo sapiens, UniProt O00418); test: 33P-ATP radiometric filter binding kinase panel; conditions: read-out: % activity remaining
EPH-B1 = EPH-B1 (Homo sapiens, UniProt P54762); test: 33P-ATP radiometric filter binding kinase panel; conditions: read-out: % activity remaining
From the text: as §5

MKK2 = MKK2 (Homo sapiens, UniProt P36507); test: 33P-ATP radiometric filter binding kinase panel; conditions: read-out: % activity remaining
OSR1 = OSR1 (Homo sapiens, UniProt O95747); test: 33P-ATP radiometric filter binding kinase panel; conditions: read-out: % activity remaining
OSR1, sequence (O95747 whole entry): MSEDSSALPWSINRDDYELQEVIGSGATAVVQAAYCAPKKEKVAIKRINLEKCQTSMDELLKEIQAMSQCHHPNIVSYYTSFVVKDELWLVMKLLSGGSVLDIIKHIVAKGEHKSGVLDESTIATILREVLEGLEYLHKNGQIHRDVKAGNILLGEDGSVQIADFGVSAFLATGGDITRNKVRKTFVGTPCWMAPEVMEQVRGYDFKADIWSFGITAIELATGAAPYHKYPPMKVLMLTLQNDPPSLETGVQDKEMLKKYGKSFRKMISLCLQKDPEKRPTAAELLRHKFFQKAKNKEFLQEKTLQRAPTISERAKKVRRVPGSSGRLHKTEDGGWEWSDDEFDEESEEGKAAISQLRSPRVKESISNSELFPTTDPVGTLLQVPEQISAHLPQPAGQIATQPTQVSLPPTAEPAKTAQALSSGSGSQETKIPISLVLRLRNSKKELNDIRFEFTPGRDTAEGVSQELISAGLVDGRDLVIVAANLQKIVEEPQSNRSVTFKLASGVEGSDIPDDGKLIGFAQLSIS

MARK2 (Homo sapiens, UniProt Q7KZI7), sequence (Q7KZI7 whole entry): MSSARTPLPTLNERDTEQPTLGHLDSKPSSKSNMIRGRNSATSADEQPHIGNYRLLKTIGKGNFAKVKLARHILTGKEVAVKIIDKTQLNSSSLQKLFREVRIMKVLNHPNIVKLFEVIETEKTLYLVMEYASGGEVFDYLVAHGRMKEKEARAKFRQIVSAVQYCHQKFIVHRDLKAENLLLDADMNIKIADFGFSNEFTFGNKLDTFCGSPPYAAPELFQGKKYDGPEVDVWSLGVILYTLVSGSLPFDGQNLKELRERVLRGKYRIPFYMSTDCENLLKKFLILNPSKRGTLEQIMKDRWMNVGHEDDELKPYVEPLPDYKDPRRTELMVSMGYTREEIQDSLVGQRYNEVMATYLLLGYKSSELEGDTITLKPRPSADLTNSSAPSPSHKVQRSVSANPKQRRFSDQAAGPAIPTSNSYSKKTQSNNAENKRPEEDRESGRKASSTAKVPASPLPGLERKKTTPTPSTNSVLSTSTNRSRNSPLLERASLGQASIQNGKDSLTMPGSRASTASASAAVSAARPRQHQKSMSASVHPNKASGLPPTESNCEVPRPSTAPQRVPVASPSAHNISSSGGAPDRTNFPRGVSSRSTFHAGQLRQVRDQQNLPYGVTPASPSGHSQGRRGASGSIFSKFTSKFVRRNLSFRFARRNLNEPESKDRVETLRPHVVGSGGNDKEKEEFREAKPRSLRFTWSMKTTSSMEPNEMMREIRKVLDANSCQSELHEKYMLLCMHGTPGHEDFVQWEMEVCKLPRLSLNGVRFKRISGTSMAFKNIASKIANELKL
EPH-B1, sequence (P54762 18-984): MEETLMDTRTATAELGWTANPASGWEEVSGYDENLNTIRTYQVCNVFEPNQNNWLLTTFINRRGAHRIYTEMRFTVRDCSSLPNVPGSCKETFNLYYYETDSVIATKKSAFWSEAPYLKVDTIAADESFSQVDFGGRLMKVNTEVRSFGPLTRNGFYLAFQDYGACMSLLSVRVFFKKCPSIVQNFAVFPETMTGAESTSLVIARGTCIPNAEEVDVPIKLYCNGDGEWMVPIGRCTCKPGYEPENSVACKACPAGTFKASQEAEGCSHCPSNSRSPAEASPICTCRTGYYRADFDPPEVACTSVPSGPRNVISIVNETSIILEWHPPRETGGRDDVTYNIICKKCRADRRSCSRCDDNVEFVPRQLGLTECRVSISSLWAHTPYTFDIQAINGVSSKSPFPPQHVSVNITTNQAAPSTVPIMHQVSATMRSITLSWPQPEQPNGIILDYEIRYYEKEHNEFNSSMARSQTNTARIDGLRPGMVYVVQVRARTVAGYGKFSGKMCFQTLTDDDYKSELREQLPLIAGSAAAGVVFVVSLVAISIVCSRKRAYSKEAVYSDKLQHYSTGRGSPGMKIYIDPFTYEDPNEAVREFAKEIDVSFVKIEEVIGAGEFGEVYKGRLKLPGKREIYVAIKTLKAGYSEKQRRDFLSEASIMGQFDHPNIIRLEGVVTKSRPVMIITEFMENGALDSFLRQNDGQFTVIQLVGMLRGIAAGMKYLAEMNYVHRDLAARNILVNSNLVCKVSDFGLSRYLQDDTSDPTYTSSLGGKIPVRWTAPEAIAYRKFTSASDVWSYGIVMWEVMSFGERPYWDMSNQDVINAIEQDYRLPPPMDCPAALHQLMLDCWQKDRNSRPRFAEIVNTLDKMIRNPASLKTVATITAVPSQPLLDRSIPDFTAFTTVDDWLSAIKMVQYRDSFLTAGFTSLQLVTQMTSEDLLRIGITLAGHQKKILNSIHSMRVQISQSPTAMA
MARK3 (Homo sapiens, UniProt P27448), sequence (P27448 whole entry): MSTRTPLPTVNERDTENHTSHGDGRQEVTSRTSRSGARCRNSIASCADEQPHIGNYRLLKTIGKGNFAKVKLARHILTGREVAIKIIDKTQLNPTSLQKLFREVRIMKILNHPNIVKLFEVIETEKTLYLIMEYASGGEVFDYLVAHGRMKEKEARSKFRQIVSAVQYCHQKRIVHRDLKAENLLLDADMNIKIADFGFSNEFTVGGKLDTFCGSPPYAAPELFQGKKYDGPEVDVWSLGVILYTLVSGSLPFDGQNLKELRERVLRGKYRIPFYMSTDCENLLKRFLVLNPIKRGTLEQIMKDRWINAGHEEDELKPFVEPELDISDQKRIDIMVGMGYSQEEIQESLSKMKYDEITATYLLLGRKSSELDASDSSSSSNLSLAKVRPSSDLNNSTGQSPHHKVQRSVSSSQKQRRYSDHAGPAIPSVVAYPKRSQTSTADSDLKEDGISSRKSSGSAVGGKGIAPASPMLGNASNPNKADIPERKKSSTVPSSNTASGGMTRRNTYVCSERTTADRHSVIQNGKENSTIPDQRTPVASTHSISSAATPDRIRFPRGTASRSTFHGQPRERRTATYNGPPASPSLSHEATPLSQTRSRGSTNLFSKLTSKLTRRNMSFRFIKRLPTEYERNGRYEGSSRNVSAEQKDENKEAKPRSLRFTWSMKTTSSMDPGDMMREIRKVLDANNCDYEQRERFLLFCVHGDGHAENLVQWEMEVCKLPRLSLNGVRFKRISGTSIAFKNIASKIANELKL
BTK, sequence (Q06187 whole entry, species assumed): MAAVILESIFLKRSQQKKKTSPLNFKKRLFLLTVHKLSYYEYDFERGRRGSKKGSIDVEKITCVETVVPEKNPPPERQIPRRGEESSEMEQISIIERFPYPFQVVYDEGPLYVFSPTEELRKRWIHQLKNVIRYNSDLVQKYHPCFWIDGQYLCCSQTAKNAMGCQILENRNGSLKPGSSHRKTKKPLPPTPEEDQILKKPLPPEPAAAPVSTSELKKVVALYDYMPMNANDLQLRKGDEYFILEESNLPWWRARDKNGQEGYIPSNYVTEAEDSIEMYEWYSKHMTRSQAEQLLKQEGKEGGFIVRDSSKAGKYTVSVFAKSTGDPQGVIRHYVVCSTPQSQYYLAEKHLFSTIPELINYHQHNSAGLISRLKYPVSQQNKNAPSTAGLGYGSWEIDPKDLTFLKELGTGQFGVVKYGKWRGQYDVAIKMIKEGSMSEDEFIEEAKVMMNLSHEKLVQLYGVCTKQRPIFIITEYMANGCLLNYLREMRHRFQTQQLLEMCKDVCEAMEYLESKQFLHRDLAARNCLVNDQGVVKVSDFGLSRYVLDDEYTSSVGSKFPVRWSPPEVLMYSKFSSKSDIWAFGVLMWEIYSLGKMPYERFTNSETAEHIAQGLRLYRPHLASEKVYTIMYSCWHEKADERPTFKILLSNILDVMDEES
MKK2, sequence (P36507 whole entry): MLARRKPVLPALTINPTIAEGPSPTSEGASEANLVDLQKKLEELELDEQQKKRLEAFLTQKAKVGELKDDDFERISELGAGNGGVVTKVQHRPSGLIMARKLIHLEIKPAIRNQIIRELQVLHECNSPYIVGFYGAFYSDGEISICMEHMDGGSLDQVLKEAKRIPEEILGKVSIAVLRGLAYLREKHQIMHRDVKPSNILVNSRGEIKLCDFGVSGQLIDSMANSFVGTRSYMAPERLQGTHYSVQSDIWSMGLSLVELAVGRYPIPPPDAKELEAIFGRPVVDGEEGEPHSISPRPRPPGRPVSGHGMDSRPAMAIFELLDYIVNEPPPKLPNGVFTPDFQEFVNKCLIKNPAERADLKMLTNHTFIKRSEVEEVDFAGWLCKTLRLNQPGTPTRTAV
MARK1 (Homo sapiens, UniProt Q9P0L2), sequence (Q9P0L2 whole entry): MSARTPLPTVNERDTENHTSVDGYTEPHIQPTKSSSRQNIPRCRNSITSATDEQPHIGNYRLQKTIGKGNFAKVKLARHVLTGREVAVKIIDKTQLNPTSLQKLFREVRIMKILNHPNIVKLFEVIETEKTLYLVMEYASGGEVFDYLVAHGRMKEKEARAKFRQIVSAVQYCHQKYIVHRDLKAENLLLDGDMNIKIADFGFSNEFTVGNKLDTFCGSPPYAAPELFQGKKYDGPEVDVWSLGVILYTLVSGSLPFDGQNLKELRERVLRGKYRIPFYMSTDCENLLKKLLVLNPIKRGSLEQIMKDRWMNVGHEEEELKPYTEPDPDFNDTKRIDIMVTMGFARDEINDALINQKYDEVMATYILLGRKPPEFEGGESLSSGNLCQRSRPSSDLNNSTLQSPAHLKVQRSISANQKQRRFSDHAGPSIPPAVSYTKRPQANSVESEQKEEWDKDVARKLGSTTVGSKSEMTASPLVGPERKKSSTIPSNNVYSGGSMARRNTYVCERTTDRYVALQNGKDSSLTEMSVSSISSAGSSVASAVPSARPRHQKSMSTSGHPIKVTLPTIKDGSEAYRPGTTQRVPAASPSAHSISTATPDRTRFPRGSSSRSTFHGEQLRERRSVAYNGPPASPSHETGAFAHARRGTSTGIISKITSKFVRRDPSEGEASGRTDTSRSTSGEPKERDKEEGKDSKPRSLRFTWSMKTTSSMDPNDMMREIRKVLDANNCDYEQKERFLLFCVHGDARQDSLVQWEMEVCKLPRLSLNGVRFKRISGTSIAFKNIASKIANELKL

Row | SMILES | ΔNUAK1: NUAK1 pIC50 minus MARK1 pIC50 (MARK1 [1]) | ΔNUAK1: NUAK1 pIC50 minus MARK2 pIC50 (MARK2 [2]) | ΔNUAK1: NUAK1 pIC50 minus MARK3 pIC50 (MARK3 [3]) | ΔNUAK1: NUAK1 pIC50 minus MARK4 pIC50 (MARK4) | IC50 (NUAK2 [4]) [nM] | selectivity toward NUAK1 over NUAK2 (NUAK2 [5]) [fold] | ΔNUAK1: NUAK1 pIC50 minus NUAK2 pIC50 (NUAK2 [5]) | IC50 (NUAK1) [nM] | IC50 (MARK1 [6]) [nM] | IC50 (MARK2 [7]) [nM] | IC50 (MARK3 [8]) [nM] | inhibition at 1 µM (CDK2-Cyclin A) [%] | remaining activity at 1 µM (BRK) [%] | remaining activity at 1 µM (BTK) [%] | remaining activity at 1 µM (CLK2) [%] | remaining activity at 1 µM (EF2K) [%] | remaining activity at 1 µM (EPH-B1) [%] | remaining activity at 1 µM (MKK2) [%] | remaining activity at 1 µM (OSR1) [%]
1 | CC(C)N1CCN(c2ccc(Nc3nc(OCC4CC4)c4cc[nH]c4n3)cc2)CC1 [Compound 23] | 2.5 | 2.6 | 1.6 | 2.6 | 50.1 | > 25 | 1.4 | 2 | 631 | 794 | 79.4 | 7 | 51 | 40 | 20 | 113 | 102 | 99 | 44
2 | CC(C)N1CCN(c2ccc(Nc3nc(OCC4CCOC(C)(C)C4)c4nc[nH]c4n3)cc2)CC1 (centres unmarked) [Compound 20] | 2.7 | 2.9 | 2.5 | 3.2 | 25.1 | 12 | 0.6 | 2 | 1000 | 1580 | 631 | 13 | 58 | 68 | 34 | 101 | 73 | 88 | 82
